Source: PubChem BioAssay AID493117 (Broad Institute, 2011)
Inconclusive results are not listed. Activity calls are given as the source filed them.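 Rule for the calls: active = every test run gives a fitted half-maximal dose no higher than ten times the top tested dose, with signal falling; inconclusive = runs disagree, or a flat mid-level drop or poor fit; inactive = every test run inactive.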

Each compound was assayed against Autoinducer 2-binding periplasmic protein LuxP (Vibrio harveyi) + Autoinducer 2 sensor kinase/phosphatase LuxQ (Vibrio harveyi) (UniProt P54300+P54302) (assay: inhibitors of AI-2-induced luminescence in V. harveyi MM32, dose response, mechanism study for V. harveyi quorum sensing inhibitors, strain MM32 LuxS-null, dry powder, set 3 (AID 493117)). Settings: AI-2 luminescence, 5 h.
Chain of Autoinducer 2-binding periplasmic protein LuxP (Vibrio harveyi) + Autoinducer 2 sensor kinase/phosphatase LuxQ (Vibrio harveyi) (P54300 whole entry, looked up): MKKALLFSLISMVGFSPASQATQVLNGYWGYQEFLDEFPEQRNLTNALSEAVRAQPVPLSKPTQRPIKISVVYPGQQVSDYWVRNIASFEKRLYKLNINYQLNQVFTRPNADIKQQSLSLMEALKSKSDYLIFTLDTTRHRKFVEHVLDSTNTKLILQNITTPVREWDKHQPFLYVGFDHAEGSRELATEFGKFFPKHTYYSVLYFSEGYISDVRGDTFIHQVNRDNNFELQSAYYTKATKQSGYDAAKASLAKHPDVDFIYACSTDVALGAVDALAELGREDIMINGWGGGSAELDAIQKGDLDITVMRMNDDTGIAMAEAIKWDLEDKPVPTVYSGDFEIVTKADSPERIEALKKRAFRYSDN
Chain of Autoinducer 2-binding periplasmic protein LuxP (Vibrio harveyi) + Autoinducer 2 sensor kinase/phosphatase LuxQ (Vibrio harveyi) (P54302 whole entry, looked up): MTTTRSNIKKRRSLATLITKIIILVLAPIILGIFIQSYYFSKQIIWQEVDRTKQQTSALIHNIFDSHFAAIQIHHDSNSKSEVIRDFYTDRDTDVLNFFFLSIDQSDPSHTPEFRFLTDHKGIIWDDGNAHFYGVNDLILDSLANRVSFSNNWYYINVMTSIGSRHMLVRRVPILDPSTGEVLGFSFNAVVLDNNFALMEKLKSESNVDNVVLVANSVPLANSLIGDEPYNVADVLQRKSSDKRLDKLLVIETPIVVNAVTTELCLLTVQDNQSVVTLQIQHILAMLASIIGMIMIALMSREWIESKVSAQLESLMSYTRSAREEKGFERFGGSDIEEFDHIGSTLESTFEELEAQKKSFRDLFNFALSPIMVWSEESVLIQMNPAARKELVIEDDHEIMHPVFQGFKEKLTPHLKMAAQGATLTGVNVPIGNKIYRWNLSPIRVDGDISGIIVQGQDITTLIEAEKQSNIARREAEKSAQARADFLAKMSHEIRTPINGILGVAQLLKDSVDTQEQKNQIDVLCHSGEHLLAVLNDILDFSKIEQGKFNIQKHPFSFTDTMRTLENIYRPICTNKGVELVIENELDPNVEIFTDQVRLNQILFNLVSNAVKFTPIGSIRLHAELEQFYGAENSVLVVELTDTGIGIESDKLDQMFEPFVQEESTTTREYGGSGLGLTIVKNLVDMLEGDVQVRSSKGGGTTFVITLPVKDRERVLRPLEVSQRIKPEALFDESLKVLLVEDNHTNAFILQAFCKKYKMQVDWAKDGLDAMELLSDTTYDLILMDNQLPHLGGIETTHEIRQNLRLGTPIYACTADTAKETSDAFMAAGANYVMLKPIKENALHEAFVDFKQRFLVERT
Work on O=C1C=C/C(=C/Br)O1 yielded an AC50 of 3.45 µM.
With Cc1noc(C)c1S(=O)(=O)Nc1ccc2c(c1)C(=O)N([C@@H](C)CO)C[C@@H](C)[C@@H](CN(C)Cc1ccc(Oc3ccccc3)cc1)O2 the AC50 was 18.4 µM.
For C=Cn1c(C(=O)O)ccc1-c1ccc(OC)cc1, the AC50 was 7.08 µM.
Work on C=Cn1c(C(=O)O)ccc1-c1ccc(Cl)cc1 yielded an AC50 of 4.46 µM.
Work on C[C@@H]1CN([C@H](C)CO)C(=O)c2ccccc2-c2ccccc2CO[C@@H]1CN(C)Cc1ccc(Oc2ccccc2)cc1 yielded an AC50 of 11.3 µM.
For CCc1ccc(-c2ccc(C(=O)O)n2C)cc1, the AC50 was 3.61 µM.
C=Cn1c(C(=O)O)ccc1-c1ccc(CC)cc1 was tested, and the AC50 was 2.32 µM.
For Cn1cnc(S(=O)(=O)Nc2ccc(OC(F)(F)F)cc2)c1, the AC50 was 2.42 µM.
For O=S(=O)(Nc1cccnc1)c1ccc(Oc2ccccc2)cc1, the AC50 was 0.591 µM.
With O=S(=O)(Nc1ccccn1)c1ccc(Oc2ccccc2)cc1 the AC50 was 1.35 µM.

Same assay, conditions: AI-2 luminescence, 5 h, at 16 µM (top of the series)
With CN(C)C(=O)c1ccccc1NS(=O)(=O)c1cn(C)cn1 the “activity change, negative = inhibition” value was “inactive”.
CC(=O)Nc1ccccc1NS(=O)(=O)c1cn(C)cn1 was tested, and the “activity change, negative = inhibition” value was “inactive”.
In the case of Cn1cnc(S(=O)(=O)Nc2ccccc2Cl)c1, the “activity change, negative = inhibition” value is reported as “inactive”.
COc1ccccc1NS(=O)(=O)c1cn(C)cn1 was tested, and the “activity change, negative = inhibition” value was “inactive”.
For C=Cn1c(C(=O)O)ccc1-c1cccs1, the “activity change, negative = inhibition” value was “inactive”.
For C[C@H](CO)N1C[C@H](C)[C@H](CN(C)Cc2ccc(C(=O)O)cc2)Oc2ncc(-c3ccc(C(=O)N(C)C)cc3)cc2C1=O, the “activity change, negative = inhibition” value was “inactive”.
With CCc1ccc(-c2ccc(C(=O)O)n2CC)cc1 the “activity change, negative = inhibition” value was “inactive”.
For O=S(=O)(Nc1ccccn1)c1ccccc1, the “activity change, negative = inhibition” value was “inactive”.
With Cn1cnc(S(=O)(=O)Nc2ccccc2F)c1 the “activity change, negative = inhibition” value was “inactive”.
For Cc1ccccc1NS(=O)(=O)c1cn(C)cn1, the “activity change, negative = inhibition” value was “inactive”.
